Data set [1] deals with ASCs. The experiment in a line: Osteogenic differentiation of ASCs (alizarin red). As to conditions: 14 days; for osteogenic potential of ASCs relative to vehicle, with fulvestrant: 1 μM + 100 nM fulvestrant; for osteogenic potential of ASCs relative to vehicle, with fulvestrant / osteogenic potential of ASCs relative to vehicle, inhibitor study, without fulvestrant: FIG. 12; for osteogenic potential of ASCs relative to vehicle, inhibitor study, without fulvestrant: 1 μM; for osteogenic differentiation (calcium deposition), fold relative to vehicle-treated ASCs: n=6 donors, estrogen 10 nM, others 1 μM.

The subject of data set [2] is Human bone marrow derived mesenchymal stem cells (MSCs). Nature of the data set: Osteogenic differentiation of MSCs (Alizarin Red calcium deposition). As to conditions: for osteogenic activity (structure-activity summary, in words): donor MSCs; for osteogenic activity (structure-activity summary, in words) / osteogenesis averaged over all three donors, relative to vehicle treated MSCs: 1 μM.

For data set [3], the system named is BMSCs.
The subject of data set [4] is BMSCs. Nature of the data set: Osteogenic differentiation of BMSCs (alizarin red). Conditions: 14 days; for osteogenic potential of BMSCs relative to vehicle, with fulvestrant: 1 μM + 100 nM fulvestrant; for osteogenic potential of BMSCs relative to vehicle, with fulvestrant / osteogenic potential of BMSCs relative to vehicle, inhibitor study, without fulvestrant: FIG. 12; for osteogenic potential of BMSCs relative to vehicle, inhibitor study, without fulvestrant: 1 μM; for osteogenic differentiation (calcium deposition), fold relative to vehicle-treated BMSCs: n=6 donors, estrogen 10 nM, others 1 μM.

SMILES strings stand for the structures.

Turning to `C=CCOc1ccc2c(=O)c(-c3ccc(O)cc3)coc2c1` [2l, 7-(Allyloxy)-3-(4-hydroxyphenyl)-4H-chromen-4-one], in data set [1], the “osteogenic potential of ASCs relative to vehicle, with fulvestrant” value is recorded as 1.7 fold; the “osteogenic potential of ASCs relative to vehicle, inhibitor study, without fulvestrant” value is recorded as 2.4 fold; the “osteogenic differentiation (calcium deposition), fold relative to vehicle-treated ASCs” value came out at 2.2 fold. Besides, in data set [2] (day 7), the “differentiation at day 7” value was “enhanced differentiation at day 7”. Besides, in data set [2] (14 days), the “osteogenic activity (structure-activity summary, in words)” value is on record as “marked enhancement” and the “osteogenesis averaged over all three donors, relative to vehicle treated MSCs” value stood at 2.0±0.18. Also, the IC50 in data set [2] (read-out: IC50 averaged among the three donors, mean of three donors, 14 days) was determined as 0.138 µM. In addition, in data set [2] (screen, MSCs from one donor (Donor 1), analogs and daidzein 1 μM, estrogen 10 nM, 14 days), the “induction category of osteogenic differentiation (no, low, high induction)” value was “high inducers”. Also, the “cytotoxicity at higher dosages” value in data set [3] is “nor lead to cytotoxicity”. In data set [4], the “osteogenic potential of BMSCs relative to vehicle, with fulvestrant” value stood at 1.5 fold; the “osteogenic potential of BMSCs relative to vehicle, inhibitor study, without fulvestrant” value was determined as 2.0 fold; the “osteogenic differentiation (calcium deposition), fold relative to vehicle-treated BMSCs” value amounted to 1.9 fold.

Take `O=c1c(-c2ccc(O)cc2)coc2cc(OC3CCCC3)ccc12` [2g, 7-Cyclopentyloxy-3-(4-hydroxyphenyl)-4H-chromen-4-one]: in data set [1], the “osteogenic potential of ASCs relative to vehicle, with fulvestrant” value came to 0.9 fold; the “osteogenic potential of ASCs relative to vehicle, inhibitor study, without fulvestrant” value is reported as 2.0 fold; the “osteogenic differentiation (calcium deposition), fold relative to vehicle-treated ASCs” value stood at 2.0 fold. Besides, in data set [2] (14 days), the “osteogenic activity (structure-activity summary, in words)” value is “modest osteogenic activity” and the “osteogenesis averaged over all three donors, relative to vehicle treated MSCs” value is 2.0±0.64. In addition, the “cytotoxicity at higher dosages” value in data set [3] is “nor lead to cytotoxicity”. In addition, in data set [4], the “osteogenic potential of BMSCs relative to vehicle, with fulvestrant” value is recorded as 0.8 fold; the “osteogenic potential of BMSCs relative to vehicle, inhibitor study, without fulvestrant” value is recorded as 1.9 fold; the “osteogenic differentiation (calcium deposition), fold relative to vehicle-treated BMSCs” value stood at 1.6 fold.

The IC50 is the concentration that inhibits the measured activity by half.

(Values after US11098053B2, “Enhanced osteogenic activity of daidzein analogs on human mesenchymal stem cells” (THE ADMINISTRATORS OF THE TULANE EDUCATIONAL FUND, priority 2013, dated 2021).)
